These results are taken from patent US20070202203A1, “ANTI-AGEING COMPOSITION” (L'OREAL, priority 2006, published 2007).

In this test the test system is dermal equivalent consisting of a collagen matrix seeded with normal human fibroblasts. As to the kind of experiment: Dermodecontracting effect: spontaneous contraction of dermal equivalent. The conditions noted are these: surface area after 24 h of contraction; control = 100; manganese gluconate 0.0005%, adenosine 0.004%. The test is classed as cell-based. From the text: These conditions are intended to mimic in vitro, the dermal contractile phenomena that occur during dermal tensing of the face, for example during facial expressions. Under these conditions, in fact, the cells spontaneously express tensile forces that induce retraction of the collagen gel. […] The measurement of this surface area makes it possible to evalue the relaxing or dermocontracting effects of the substances previously brought into contact with the dermal equivalent. […] The experiment is repeated three times. The dermal equivalents are prepared as described in Asselineau et al., Exp. Cell. Res., 1985, 159, 536-539; Models in dermatology, 1987, vol 3 pp 1-7, in the following proportions: The collagen used is collagen type I (commercial solution), but collagen type III or IV can also be used. It is extracted from rat tails or from calf skin by acid hydrolysis and conserved in an acidic medium at […]; it polymerizes naturally by heating to 37° C. and by decreasing the degree of acidity. The collagen is dialysed beforehand against successive baths of water +acetic acid. […] For this, a digital image is acquired for each treated or nontreated dermal equivalent by means of a camera (CCD camera—Iris Sony DXC—107P) and the surface area is then calculated on each image by means of an image analysis system (Zeiss Axiovision 3.0). […]

Consider `Nc1ncnc2c1ncn2[C@@H]1O[C@H](CO)[C@@H](O)[C@H]1O` [Adenosine, adenosine], for which the “% contraction” value is listed as 82%. To manganese gluconate belongs 89%.
